Experimental data as given in the NIST ThermoML archive (doi:10.1021/je800747v).

Experiment: xn = mol fraction of the nth substance listed
Details: 101 kPa, Liquid, Optical method

CCCCCCC [heptane] + CCO
x2 = 0
Details | binary diffusion coefficient [m2/s]
276.64 K | 7.57e-09
277.73 K | 7.61e-09
281.59 K | 7.64e-09
284.32 K | 7.7e-09
287.28 K | 7.75e-09
289.59 K | 7.79e-09
292.83 K | 7.84e-09
294.95 K | 7.9e-09
296.37 K | 7.94e-09
298.46 K | 8.07e-09
301.29 K | 8.19e-09
304.98 K | 8.22e-09
306.86 K | 8.37e-09
310.67 K | 8.47e-09
312.41 K | 8.58e-09
316.09 K | 8.71e-09
319.27 K | 8.91e-09
322.81 K | 9.17e-09
325.36 K | 9.22e-09
328.78 K | 9.36e-09
332.63 K | 9.5e-09

[Cl-].[K+] [potassium chloride] + O
Details | binary diffusion coefficient [m2/s]
298.15 K, x1 = 0 | 1.86e-09

COCCOC [1,2-dimethoxyethane] + CCCCCCC
x1 = 0
Details | binary diffusion coefficient [m2/s]
276.64 K | 5.24e-09
277.73 K | 5.28e-09
281.59 K | 5.31e-09
284.32 K | 5.35e-09
287.28 K | 5.4e-09
289.59 K | 5.44e-09
292.83 K | 5.51e-09
294.95 K | 5.57e-09
296.37 K | 5.63e-09
298.46 K | 5.69e-09
301.29 K | 5.79e-09
304.98 K | 5.89e-09
306.86 K | 5.98e-09
310.67 K | 6.13e-09
312.41 K | 6.3e-09
316.09 K | 6.48e-09
319.27 K | 6.62e-09
322.81 K | 6.79e-09
325.36 K | 6.94e-09
328.78 K | 7.3e-09
332.63 K | 7.59e-09

COCCOCCOC [2,5,8-trioxanonane] + CCCCCCC
x1 = 0
Details | binary diffusion coefficient [m2/s]
276.64 K | 9.42e-10
277.73 K | 9.48e-10
281.59 K | 9.51e-10
284.32 K | 9.58e-10
287.28 K | 9.76e-10
289.59 K | 9.87e-10
292.83 K | 1e-09
294.95 K | 1.02e-09
296.37 K | 1.05e-09
298.46 K | 1.07e-09
301.29 K | 1.08e-09
304.98 K | 1.12e-09
306.86 K | 1.14e-09
310.67 K | 1.18e-09
312.41 K | 1.23e-09
316.09 K | 1.26e-09
319.27 K | 1.31e-09
322.81 K | 1.37e-09
325.36 K | 1.43e-09
328.78 K | 1.48e-09
332.63 K | 1.53e-09
